# Assay results taken from patent US11214803B2, “Modulators of YAP1 expression” (Ionis Pharmaceuticals, Inc., priority 2019, dated 2022).
# Strand notation (5' to 3'): a small letter for the sugar, then the base; units joined by * are phosphorothioate-linked, units joined directly phosphodiester-linked; [ ] holds rarer units or linkages, { } end groups; capitals alone tell only the bases. k = constrained ethyl (cEt); [5mC] = 5-methylcytosine; d = 2'-deoxy (DNA)
# Test system: Yap1 mRNA
# Assay: Antisense inhibition of human Yap1 in A-431 cells by cEt gapmers, single dose (Example 2, RTS4814)
# Format: cell-based
# Details: A-431 cells, 5,000 cells per well, free uptake, 2,000 nM modified oligonucleotide, approx. 48 hours, RTS4814, normalized to RIBOGREEN; Table 4; asterisk (*) = targets amplicon region of primer probe set
# Summary of the method: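 A-431 cells (5,000/well) took up 2,000 nM 3-10-3 cEt gapmer by free uptake for ~48 h. Yap1 mRNA was quantified by qRT-PCR with primer probe set RTS4814, normalized to RIBOGREEN total RNA, and reported as % of untreated control.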
row,Substance,YAP1 (% UTC)
1,716424 (kG*k[5mC]*kA*dA*dT*dG*dG*dA*d[5mC]*dA*dA*dG*dG*kA*kA*kG; antisense) [Compound 716424],25
2,716475 (k[5mC]*kT*kT*d[5mC]*d[5mC]*dA*dA*dA*dA*d[5mC]*dT*dA*dA*kG*kG*k[5mC]; antisense) [Compound 716475],63
3,716355 (kG*kA*k[5mC]*dG*dG*d[5mC]*dT*dG*d[5mC]*dG*dG*dG*d[5mC]*k[5mC]*kG*kG; antisense) [Compound 716355],96
4,716451 (k[5mC]*k[5mC]*k[5mC]*dA*dA*dG*d[5mC]*dT*dA*d[5mC]*dA*dA*d[5mC]*kT*kA*kT; antisense) [Compound 716451],67
5,716454 (k[5mC]*kG*kA*dG*dA*dT*dT*dT*dA*dA*dA*dT*dA*kA*kG*kG; antisense) [Compound 716454],27
6,716418 (k[5mC]*k[5mC]*kT*dG*dA*dG*dG*dG*d[5mC]*dT*d[5mC]*dT*dA*kT*kA*kA; antisense) [Compound 716418],75
7,716436 (kA*k[5mC]*kT*dG*dG*dA*d[5mC]*dA*dA*dA*dG*dG*dA*kA*kG*k[5mC]; antisense) [Compound 716436],59
8,716403 (k[5mC]*k[5mC]*kG*dG*dG*dA*dG*dA*dA*dG*dA*d[5mC]*dA*k[5mC]*kT*kG; antisense) [Compound 716403],110
9,716577 (kT*k[5mC]*kT*dG*dT*d[5mC]*dA*dG*dT*dT*dA*dT*d[5mC]*k[5mC]*kT*kA; antisense) [Compound 716577],21
10,716346 (kT*kT*kT*d[5mC]*d[5mC]*d[5mC]*dT*dG*dG*d[5mC]*dG*dG*d[5mC]*kG*kG*k[5mC]; antisense) [Compound 716346],77

# Same assay, conditions: Table 5; A-431 cells, 5,000 cells per well, free uptake, 2,000 nM modified oligonucleotide, approx. 48 hours; RTS4814; normalized to RIBOGREEN; Yap1 mRNA relative to untreated control cells
row,Substance,YAP1 (% UTC)
1,716446 (kG*k[5mC]*kA*d[5mC]*dA*d[5mC]*d[5mC]*d[5mC]*dA*d[5mC]*dA*dA*dA*kA*kT*kT; antisense) [Compound 716446],83
2,716422 (kA*kG*kT*dA*dT*d[5mC]*dT*dT*dG*d[5mC]*dT*dG*dG*kA*k[5mC]*kG; antisense) [Compound 716422],39
3,716347 (kT*kG*k[5mC]*d[5mC]*dT*dT*dT*d[5mC]*d[5mC]*d[5mC]*d[5mC]*dG*d[5mC]*k[5mC]*kT*k[5mC]; antisense) [Compound 716347],85
4,716413 (kT*k[5mC]*k[5mC]*dA*dA*dG*dG*dT*d[5mC]*d[5mC]*dA*d[5mC]*dA*kT*kT*kT; antisense) [Compound 716413],79

# Same assay, conditions: Table 6; A-431 cells, 5,000 cells per well, free uptake, 2,000 nM modified oligonucleotide, approx. 48 hours; RTS4814; normalized to RIBOGREEN; Yap1 mRNA relative to untreated control cells
row,Substance,YAP1 (% UTC)
1,716531 (antisense kG*kG*kA*d[5mC]*dA*dT*dA*dA*dA*dA*d[5mC]*dA*dA*kG*kA*kG) [Compound 716531],65
2,716570 (kA*kA*kG*dT*dG*dT*dT*dT*dA*dG*dG*d[5mC]*dA*kA*kG*k[5mC]; antisense) [Compound 716570],56

# Same assay, conditions: Table 18; A-431 cells, 5,000 cells per well, free uptake, 2,000 nM modified oligonucleotide, approx. 48 hours; RTS4814; normalized to RIBOGREEN; Yap1 mRNA as percent of untreated control
row,Substance,YAP1 (% UTC)
1,1075268 (antisense kT*kA*kT*dT*dA*dA*d[5mC]*d[5mC]*dT*dG*dG*dA*dG*kA*kG*kT) [Compound 1075268],47

# Same assay, conditions: Table 19; A-431 cells, 5,000 cells per well, free uptake, 2,000 nM modified oligonucleotide, approx. 48 hours; RTS4814; normalized to RIBOGREEN; Yap1 mRNA as percent of untreated control
row,Substance,YAP1 (% UTC)
1,1075973 (k[5mC]*k[5mC]*kG*d[5mC]*dA*dA*d[5mC]*dA*d[5mC]*d[5mC]*dA*dT*dT*k[5mC]*kT*kT; antisense) [Compound 1075973],8

# Same assay, conditions: Table 20; Yap1 mRNA, percent of untreated control; 3-10-3 cEt gapmers targeting SEQ ID NO.: 1 and 2
row,Substance,YAP1 (% UTC)
1,1075782 (kT*kA*kT*dT*dA*dG*dG*dT*dT*dT*d[5mC]*d[5mC]*d[5mC]*kG*kT*kT; antisense) [Compound 1075782],10
2,1076454 (kT*kA*kA*dA*d[5mC]*dT*dA*dA*dT*d[5mC]*d[5mC]*d[5mC]*dA*kT*kA*kT; antisense) [Compound 1076454],35
3,1074630 (antisense kA*kG*kA*dG*dA*dT*dT*dT*dT*dA*dT*dG*d[5mC]*k[5mC]*kT*kG) [Compound 1074630],5

# Same assay, conditions: Table 21; Yap1 mRNA, percent of untreated control; 3-10-3 cEt gapmers targeting SEQ ID NO.: 1 and 2
row,Substance,YAP1 (% UTC)
1,1075847 (k[5mC]*kT*kT*dT*dA*dT*dA*dG*d[5mC]*dA*dG*dA*dT*kG*k[5mC]*k[5mC]; antisense) [Compound 1075847],14
2,1074215 (antisense kG*k[5mC]*kT*d[5mC]*d[5mC]*dG*dG*d[5mC]*dG*dG*d[5mC]*dT*dT*kG*kA*kA) [Compound 1074215],77

# Same assay, conditions: Table 22; Yap1 mRNA as percent of untreated control; 3-10-3 cEt gapmers; single dose
row,Substance,YAP1 (% UTC)
1,1075368 (kG*kA*kG*dA*dA*dT*dA*dA*dG*d[5mC]*dA*dA*dT*k[5mC]*kA*kG; antisense) [Compound 1075368],24
2,1075688 (kG*kA*k[5mC]*dA*dA*dT*dA*dA*dA*d[5mC]*dA*dT*d[5mC]*kA*k[5mC]*k[5mC]; antisense) [Compound 1075688],12
3,1076552 (antisense kA*kT*kG*dT*dA*dT*dA*dA*dA*dT*dA*d[5mC]*d[5mC]*kA*kG*kG) [Compound 1076552],7
4,1075400 (antisense kT*kA*kG*d[5mC]*dA*dA*dT*dA*dG*dT*d[5mC]*dA*dG*kG*kT*kA) [Compound 1075400],11

# Same assay, conditions: Table 23; Yap1 mRNA as percent of untreated control; 3-10-3 cEt gapmers; single dose
row,Substance,YAP1 (% UTC)
1,1074953 (antisense kG*kG*kG*dT*dT*dT*dT*dT*dG*dT*d[5mC]*dA*dT*k[5mC]*kA*kG) [Compound 1074953],32
2,1076265 (kT*kA*kT*dT*dA*d[5mC]*d[5mC]*d[5mC]*dA*dA*dT*dA*dA*k[5mC]*k[5mC]*kA; antisense) [Compound 1076265],9
3,1076457 (antisense kG*kA*kA*d[5mC]*dT*dA*dT*dA*dA*dT*d[5mC]*dT*dT*kA*kT*kA) [Compound 1076457],74
4,1076201 (k[5mC]*kT*kA*dA*dA*dA*dA*dG*dA*d[5mC]*dA*dG*dG*kG*k[5mC]*k[5mC]; antisense) [Compound 1076201],99
5,1075977 (kG*kA*kT*dT*dA*dA*dA*dA*dG*dT*d[5mC]*dG*dG*kG*k[5mC]*k[5mC]; antisense) [Compound 1075977],73

# Same assay, conditions: Table 24; Yap1 mRNA as percent of untreated control; 3-10-3 cEt gapmers targeting SEQ ID NO.: 1, and 2
row,Substance,YAP1 (% UTC)
1,1074890 (antisense kG*kA*kA*dG*dT*dT*dT*dA*dG*d[5mC]*d[5mC]*dT*dG*kA*kA*kG) [Compound 1074890],58

# Same assay, conditions: Table 25; Yap1 mRNA as percent of untreated control; 3-10-3 cEt gapmers targeting SEQ ID NO.: 1, and 2
row,Substance,YAP1 (% UTC)
1,1075755 (kA*k[5mC]*kT*dT*dA*dA*dA*dT*dG*dG*d[5mC]*dA*d[5mC]*kA*kG*kT; antisense) [Compound 1075755],73
2,1076139 (k[5mC]*kG*kA*dA*dA*dA*dA*dA*dG*d[5mC]*d[5mC]*dA*dA*k[5mC]*kA*kA; antisense) [Compound 1076139],18
3,1076427 (k[5mC]*kA*kA*dA*dT*dT*dT*dA*d[5mC]*dT*dG*dA*dT*k[5mC]*kT*k[5mC]; antisense) [Compound 1076427],3
4,1076267 (kA*kT*kT*dT*dA*dA*dG*dG*dT*dG*d[5mC]*dA*dT*kA*kA*kG; antisense) [Compound 1076267],13

# Same assay, conditions: Table 32; Yap1 mRNA, percent of untreated control; 3-10-3 cEt gapmers targeting SEQ ID NO.: 1, and 2
row,Substance,YAP1 (% UTC)
1,1075634 (antisense kA*kG*kA*d[5mC]*dT*dA*dT*dA*dT*dT*dG*dG*d[5mC]*kT*k[5mC]*k[5mC]) [compound 1075634],65
2,1075474 (kT*kT*kT*dA*dA*dT*dA*dG*dG*d[5mC]*dT*d[5mC]*dT*kA*kT*k[5mC]; antisense) [compound 1075474],68

# Same assay, conditions: Table 33; Yap1 mRNA, percent of untreated control; 3-10-3 cEt gapmers targeting SEQ ID NO.: 1, and 2
row,Substance,YAP1 (% UTC)
1,1075795 (kG*kT*kA*dA*dT*dT*dA*dT*dA*dT*dA*d[5mC]*d[5mC]*k[5mC]*kA*k[5mC]; antisense) [compound 1075795],66
2,1074995 (antisense kA*kA*kA*dA*d[5mC]*dT*dA*dA*dA*dT*dG*dG*dA*k[5mC]*k[5mC]*kG) [compound 1074995],50
3,1075731 (k[5mC]*k[5mC]*k[5mC]*d[5mC]*dA*dA*dT*dA*dT*dT*dA*dT*d[5mC]*kT*kA*k[5mC]; antisense) [compound 1075731],40

# Same assay, conditions: Yap1 mRNA as percent of untreated control; A-431 cells; 3-10-3 cEt gapmers targeting SEQ ID NO.: 1, and 2; Table 30
row,Substance,YAP1 (% UTC)
1,1076080 (k[5mC]*kA*kT*dT*dA*dG*d[5mC]*dA*dG*dT*dT*d[5mC]*dA*k[5mC]*kT*kA; antisense) [compound 1076080],55
2,1075696 (kT*kT*kA*d[5mC]*dA*dA*dA*dA*dG*dT*dT*dA*d[5mC]*kT*kG*k[5mC]; antisense) [compound 1075696],28

# Same assay, conditions: Yap1 mRNA as percent of untreated control; A-431 cells; 3-10-3 cEt gapmers targeting SEQ ID NO.: 1, and 2; Table 31
row,Substance,YAP1 (% UTC)
1,1075601 (antisense kA*k[5mC]*kA*d[5mC]*dT*dA*dT*dA*dA*dT*d[5mC]*dT*dG*kA*k[5mC]*k[5mC]) [compound 1075601],50
